Assay results as given in PubChem BioAssay (NCI).
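Cells were grown in 96-well plates and exposed to each compound for 48 hours at five concentrations; endpoints were interpolated linearly between bracketing concentrations, or set to the highest concentration if not reached. GI50: concentration for 50% inhibition of growth. TGI marks complete inhibition of growth.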

Experiments:
Test in all cases: NCI anticancer screen, dose series, 48 h
[1] = test system: A498 renal
[2] = test system: NCI-H460 lung
[3] = test system: SNB-19 CNS
[4] = test system: OVCAR-5 ovarian
[5] = test system: NCI-H522 lung
[6] = test system: SNB-75 CNS
[7] = test system: SR leukemia
[8] = test system: OVCAR-3 ovarian
[9] = test system: HCT-116 colon
[10] = test system: RPMI-8226 leukemia

| SMILES | TGI [1] [µM] | TGI [2] [µM] | TGI [3] [µM] | TGI [4] [µM] | TGI [5] [µM] | TGI [6] [µM] | TGI [7] [µM] | TGI [8] [µM] | TGI [9] [µM] | TGI [10] [µM] | GI50 [2] [µM] | GI50 [3] [µM] | GI50 [4] [µM] | GI50 [5] [µM] | GI50 [6] [µM] | GI50 [7] [µM] | GI50 [10] [µM] | GI50 [8] [µM] | GI50 [9] [µM] | GI50 [1] [µM] |
| --- | --- | --- | --- | --- | --- | --- | --- | --- | --- | --- | --- | --- | --- | --- | --- | --- | --- | --- | --- | --- |
| COC(=O)NC1(NC(=O)OC)NC(=O)c2cc(OC)c(OC)c(OC)c2N1 | > 100 | > 100 | > 100 | > 100 | 41.5 | 38.8 | > 100 | > 100 | > 100 |  |  |  |  |  |  |  |  |  |  |  |
| CC(=O)C1C(=O)NC(=O)C1=O (stereo unspecified) | > 100 | > 100 | > 100 | > 100 | > 100 | > 100 |  | > 100 | > 100 | > 100 |  |  |  |  |  |  |  |  |  |  |
| COc1cc(O)c2c(c1)C(=O)C=C(Cl)C2=O | > 100 |  | > 100 | > 100 | > 100 | > 100 |  | > 100 | > 100 | > 100 |  |  |  |  |  |  |  |  |  |  |
| O=C(CC1(O)C(=O)Nc2ccccc21)c1ccco1 (stereo unspecified) | > 100 | > 100 | > 100 | > 100 | > 100 | > 100 |  | > 100 | > 100 | > 100 |  |  |  |  |  |  |  |  |  |  |
| CCN1C2=NCCN2S(=O)(=O)c2ccccc21 | > 100 | > 100 | > 100 | > 100 | > 100 |  |  | > 100 | > 100 |  |  |  |  |  |  |  |  |  |  |  |
| S=C(Nc1ccc(Cl)cc1)Nc1ccc(-c2nc3ccccc3o2)cc1 |  | 58.3 | > 100 | 52.9 | 26.7 | 72.2 | 52.3 | 44.7 | 26.4 | 23.2 | 17.4 | 25.6 | 20.4 | 11 | 37.7 | 19 | 3.8 | 13.6 | 13.6 |  |
| Cc1ccc(NC(=O)C(=O)CC(=O)C2CCOC2=O)c(C)c1 (stereo unspecified) | > 100 | > 100 | > 100 | > 100 | > 100 | > 100 |  | > 100 | > 100 | > 100 |  |  |  |  |  |  |  |  |  |  |
| CN(C)c1ncc(-c2ccc(C(F)(F)F)cc2)c(NC2CCCCCC2)n1 | 29.4 | 35.9 | 37.5 | 38.8 | 30.2 | 93.8 |  | 33.3 | 53.4 | 24.4 | 16.2 | 15.6 | 18.2 | 11.2 | 20.6 |  | 6.51 | 16.3 | 10.4 | 12.4 |
| CC(=O)OC1CC2Oc3ccc(C)cc3C(C)(O2)C1=O (stereo unspecified) |  | > 100 | > 100 |  | > 100 | > 100 |  | > 100 | > 100 | > 100 |  |  |  |  |  |  |  |  |  |  |
| COc1ccc(C(=O)C(c2ccc(OC)cc2)C2OC(=O)C(Cl)=C2Cl)cc1 (stereo unspecified) |  | > 100 | > 100 | > 100 | > 100 |  | > 100 | > 100 | > 100 | > 100 |  |  |  |  |  |  |  |  |  |  |
| O=C(Nc1cccc(Cc2cccc(NC(=O)c3ccccc3)c2)c1)c1ccccc1 | > 100 | > 100 | 94.6 | > 100 | > 100 | 27.5 | > 100 | > 100 | > 100 |  |  |  |  |  |  |  |  |  |  |  |
| CC1(C)OB(O)OC1(C)C | > 100 | > 100 | > 100 | > 100 | > 100 | > 100 |  | > 100 | > 100 | > 100 |  |  |  |  |  |  |  |  |  |  |
| O=c1cc(-c2ccccc2)oc2cc(O)cc(O)c12 |  | 40.2 | 88.8 | 37.4 | 33 | 31.2 | 65.6 | 82.1 | 50.9 | 41.7 |  |  |  |  |  |  |  |  |  |  |
| Nc1nc2cc3ccc(C4CC(O)C(CO)O4)cc3cc2c(=O)[nH]1 (stereo unspecified) | > 100 | > 100 | > 100 | > 100 | > 100 | > 100 |  | > 100 | > 100 | > 100 | > 100 | > 100 | > 100 | > 100 | 49.6 |  | > 100 | > 100 | > 100 | 26.8 |
| CS(=O)(=O)Nc1cccc(-c2cc(-c3ccccc3Cl)c(C#N)c(N)n2)c1 | 14.4 | 11.5 | 19.6 | 19.9 | 3.89 | 2.44 |  | 2.8 | 11.8 | 27.5 | 0.417 | 0.859 | 3.22 | 0.294 | 0.239 |  | 0.702 | 0.298 | 0.448 | 0.669 |
| CN(C)CCSc1cccc(-c2cc(-c3cccc(SCCN(C)C)c3)nc(SCCN(C)C)n2)c1 |  | 3.46 |  | 19.5 | 2.98 | 12.1 | 4.49 | 21.8 | 2.95 |  |  |  |  |  |  |  |  |  |  |  |
| O=C(/C=C/C=C/c1c(C2CC2)nc2ccccc2c1-c1ccc(F)cc1)c1cccs1 | 3.58 | 3.31 | > 100 |  | 9.09 | > 100 |  | 4.99 |  |  | 1.14 | 4.05 |  | 2.52 | > 100 |  |  | 1.5 |  | 1.67 |
| O=C(O)c1cc2ccccc2c(N=Nc2cc(C(F)(F)F)ccc2Cl)c1O |  | > 100 | 21.5 | > 100 | > 100 | 0.0907 | > 100 | > 100 | > 100 | > 100 |  |  |  |  |  |  |  |  |  |  |
| O/N=C1/C(=C/c2ccc(Oc3ccccc3)cc2)CCCC1C(NO)c1ccc(Oc2ccccc2)cc1 (stereo unspecified) |  | > 100 | > 100 | > 100 |  | > 100 |  | > 100 | 24.6 | 76.1 |  |  |  |  |  |  |  |  |  |  |
| COc1cc2c3c(n(CCCNCCCNCCCNCCCN)c(=O)c2cc1OC)-c1cc2c(cc1C3=O)OCO2 | 12.1 | 4.25 | 15.4 | 5.63 | > 100 | 13.6 |  | 3.88 | 3.13 |  | 1.32 | 2.23 | 1.76 | 3.61 | 2.98 |  |  | 1.57 | 1.5 | 3.14 |
